The text below walks through data of patent EP0461264A1, “ETHYNYLPHENYL DERIVATIVE, PRODUCTION THEREOF, AND REMEDY FOR DISEASES OF CIRCULATORY ORGANS CONTAINING THE SAME AS ACTIVE INGREDIENT” (KAKEN PHARMACEUTICAL CO., LTD., priority 1989, dated 1991).

Counter-ions that a name gives are not always drawn. Like-named read-outs stand apart in the source and are kept apart here.

In series [1] the test system is spontaneously hypertensive rats. The series is described as follows: Activity against blood pressure (Test Example 1-1), tail-cuff measurement after oral administration. In kind it is in vivo. The settings on record: Rattus norvegicus. On the procedure:
Male spontaneously hypertensive rats (20 to 30 weeks) were employed. After being heated in a heating box at 45 ° C for about 5 minutes, the rats were put in holders for measuring blood pressure, and blood pressure cuffs were set on the rats. After the rat's heart rate was stabilized, blood pressure of each rat was measured by a sphygmomanometer for rat (8002e, made by W + W Co., Ltd.) before the administration, and one hour, three hours and six hours after the administration. Each test compound dissolved in a 0.5 % solution of methyl cellulose was administered orally in a volume of 5 mℓ/kg.
Change of the blood pressure was calculated by the following formula.
(§1) Change rate (%) = [(Measured value after administration - Measured value before administration)/Measured value before administration] x 100

The subject of series [2] is Spontaneous hypertensive male rats. The series is described as follows: Duration of blood pressure reduction activity (Test Example 1-2), direct aortic pressure without anesthesia. The settings on record: oral, 3 mg/kg or 10 mg/kg, Figure 1. In kind it is in vivo. On the procedure: Spontaneous hypertensive male rats (35 weeks) were employed. Before the day the test was carried out, rats were anesthetized with ether, and then, a polyethylene tube was inserted into an aorta abdominalis of the each rat. The other end of the polyethylene tube was led out of the rat's body, and the led polyethylene tube was connected with a pressure transducer. Blood pressure of each rat was measured by a polygraph (RM-85, made by Nihon Koden Kohgyo Co., Ltd.) without anesthesia before the administration, at intervals of one hour for eight hours after the administration and 24 hours after the administration.
Each test compound disolved in a 0.5 % solution of methyl cellulose was administered orally in a volume of 5 m í/kg and in a dose of 3 mg/kg or 10 mg/kg.
As is clear from Figure 1, blood pressure reduction activity of the compound No. 1 lasted for at least eight hours.

The subject of series [3] is model of vasopressin myocardial ischemia. The series is described as follows: Activity against a model of vasopressin myocardial ischemia (ST wave depression, Test Example 3). The note with it: intravenous, five minutes before vasopressin 0.3 µg/kg, compared with nicardipine or nifedipine, Figure 3. The format is in vivo, Donryu strain male rats. On the procedure: In accordance with a method of Hiramatu et al. (Japanese Journal Pharmacology 20,313 to 324,1970), Donryu strain male rats weighing 142 to 265 g were employed. Rats were anesthetized by intraperitoneally administering 60 mg/kg of pentobarbital sodium. After intravenous administration of 0.3 µg/kg of vasopressin, electrocardiogram (lead II) was recorded every one minute for five minutes. The maximum depression of ST wave in electrocardiogram was measured as an indication of myocardial ischemia. Five minutes before the administration of vasoperessin, each test compound dissolved in a mixted solution containing 20 % of propylen glycol and 5 % of glucose, was administered intravenously in a dose of 1 mt/kg.

Series [4] deals with left circumflex coronary artery and right vertebral artery blood flow. The experiment in a line: Activity against blood flow in anesthetized dogs (Test Example 4). In kind it is in vivo, Beagle dogs. The note with it: intravenous, compared with nicardipine or nimodipine, Figure 4. On the procedure: Beagle dogs weighing 7 to 14 kg were employed, irrespective of sex. Dogs were anesthetized by intravenously administering 30 mg/kg of pentobarbital sodium (Nembutal). During the test […] of pentobarbital was injected continually into each dog. A endotracheal tube was inserted into each trachea. Incision was performed along the midline of the chest and a heart was exposed. Probes of a electromagnetic flowmeter (made by Nihon Koden Kohgyo Co., Ltd.) were set on a left circumflex coronary artery and a right vertebral artery. Each parameter was recorded simultaneously by polygragh (made by Nihon Koden Kogyo Co., Ltd.). […] Change of blood flow was calculated by the following Change rate.
as §1

The next series deals with angiotensin II. The experiment in a line: Inhibitory activity against angiotensin II, constriction response of ileum preparations (Test Example 5). The format is cell-based, Hartrey male guinea pigs. On the procedure: From Hartrey male guinea pigs weighing about 500 g, ileum preparations were prepared. […] Thereinto 3 x 10^-8M of angiotensin II was added and constriction response of each preparation was measured through a isometoric transducer (made by Nihon Koden Kogyo Co., Ltd.). Before the addition of angiotensin II, a compound of the present invention or saralasin was previously added into a Magnus trough. Contractive responses in both cases were compared and Inhibition rate was calculated by the following formula.
Angiotensin II Inhibition rate = (1 - Tension in case of adding test compound/Tension of control) x 100

Series [5] concerns convulsion caused by pentylenetetrazole. The series is described as follows: Activity against convulsion caused by pentylenetetrazole (Test Example 6). In kind it is in vivo, Slc: ddy male mice. The note with it: summary of Table 4. On the procedure:
Slc: ddy male mice weighing 24 to 32 g (5 weeks) were bred under an environment of 22° to 24° C room temperature and 60 % humidity for 1 week, and then the bred mice were subjected to a test. The test was carried out as the following procedure. One hour after the oral administration of a test compound, 40 mg/kg of pentylenetetrazole was administered in a caudal vein. Appearance of tonic extensive convulsion was measured as an indication, and anticonvulsive activity was examined. Each test compound was suspended in a 0.5 % solution of methyl cellulose, which was used for a control group.

Series [6] in a line: Acute toxicity (Test Example 7). The settings on record: rat, in vivo; oral administration, death rate after 7 days; read-out: Rat LDso. On the procedure:
In each group 5 Slc: Wistar male rats weighing 100 g to 114 g (4 weeks) were employed. The compound No. 1 was administered orally thereto and with death rate after 7 days a value of acute toxicity was measured.
Rat LDso = 300 to 1000 mg/kg (oral administration)

Series [7] deals with atrioventricular conduction system. The note with it: rat, in vivo, iv.
Procedure: Wistar rats weighing 400 to 500 g were employed. Rats were anesthetized by intraperitoneally administering 50 mg/kg of pentobarbital sodium, and electrocardiogram of each rat was recorded in lead II. PQ interval (interval from a begining point of P wave to a begining point of Q wave) in electrocardiogram was measured. Each test compound adjusted with a mixed solution containing 20 % of propylene glycol and 5 % of glucose, was administered additionally in a volume of 0.5 m L/kg in order through a polyethylene tube which was inserted into femoral vein. Electrocardiogram was recorded every one minute for five minutes after the administration at a chart speed of 100 mm/sec.
Activity against PQ interval of a test compound was calculated by the following formula.
Change rate (%) = [(PQ interval after administration - PQ interval before administration)/PQ interval before administration] x 100
[8] abbreviates: 1 h, one hour after administration, read-out: Change rate of blood pressure 1 hr. value.
Setting [9] is: 3 h, three hours after administration, read-out: Change rate of blood pressure 3 hr. value.
Setting [10] is: 6 h, six hours after administration, read-out: Change rate of blood pressure 6 hr. value.

One may read the inhibition as how much of the control response was suppressed. As for `C#Cc1cccc(C2C(C(=O)OC)=C(C)NC(C)=C2C(=O)OCCN2CCN(C(c3ccccc3)c3ccccc3)CC2)c1` (stereo not shown) [Compound No. 1, 4-(3-ethynylphenyl)-3-methoxycarbonyl-2,6-dimethyl-5-(N-diphenyl-methylpiperazinylethoxycarbonyl)-1,4-dihydropyridine], the change in vivo at 10 mg/kg in series [1] (setting [8]) was -39%; in series [1] (setting [9]), -45.2%; in series [1] (setting [10]) it was -43.3%. For the same compound, the “Duration of blood pressure reduction activity” value in series [2] is given as “at least eight”. The “antimyocardial ischemia activity (maximum depression of ST wave)” value in series [3] was “greater antimyocardial ischemia activity than that of nicardipine or nifedipine”. In addition, the “activity for increasing coronary blood flow” value in series [4] is on record as “greater activity”. In addition, the “activity for increasing vertebral blood flow” value in series [4] is “greater activity”. Further, the inhibition at 1 µM with angiotensin II (Cavia porcellus, Concentration 10^-6 M, 3 x 10^-8M angiotensin II, read-out: Angiotensin II Inhibition rate (%)) came to 71.1%. Also, the inhibition at 0.1 µM in the series on angiotensin II (Cavia porcellus, Concentration 10^-7 M, 3 x 10^-8M angiotensin II, read-out: Angiotensin II Inhibition rate (%)) was 56.2%. In the series with angiotensin II (Cavia porcellus, Concentration 10^-8 M, 3 x 10^-8M angiotensin II, read-out: Angiotensin II Inhibition rate (%)), the inhibition at 0.01 µM was determined as 6.5%. Besides, in the series on angiotensin II (compared with saralasin, positive control drug), the “Inhibitory activity against angiotension II” value was “the same extent of Inhibitory activity against angiotension II as that of saralasin”. Further, the anticonvulsive activity result in series [5] is on record as “did not show the activity”. Besides, in series [6], the LD50 at 168 h was 300 to 1000 mg/kg. The “influence on artrioventricular conduction system (change rate of PQ interval)” value in series [7] is “less influence on artrioventricular conduction system as compared with nicardipine”.

As for `O=C1NC(=O)C(c2ccccc2)(c2ccccc2)N1` [Diphenylhidantoin, reference compound], in series [5], the anticonvulsive activity result was “showing anticonvulsive activity”.

On to `COC(=O)C1=C(C)NC(C)=C(C(=O)OCCN(C)Cc2ccccc2)C1c1cccc([N+](=O)[O-])c1` (stereo not shown) [Nicardipine, 2-(N-benzyl-N-methylamino)ethyl, methyl 2,6-dimethyl-4-(3-nitrophenyl)-1,4-dihydropyridinedicarboxylate hydrochloride, reference compound], for which the change in vivo at 10 mg/kg in series [1] (setting [8]) is -35%; in series [1] (setting [9]), -3.5%; in series [1] (setting [10]), -2%.

`COCCOC(=O)C1=C(C)NC(C)=C(C(=O)OC(C)C)C1c1cccc([N+](=O)[O-])c1` (stereo not shown) [Nimodipine, isopropyl, 2-methoxyethyl 2,6-dimethyl-4-(3-nitrophenyl)-1,4-dihydropyridinedicarboxylate, reference compound]: the change in vivo at 10 mg/kg was -11% in series [1] (setting [8]), -11% in series [1] (setting [9]) and -10.2% in series [1] (setting [10]).

Turning to `C#Cc1cccc(F)c1C1C(C(=O)OC)=C(C)NC(C)=C1C(=O)OCCN1CCN(C(c2ccccc2)c2ccccc2)CC1` (stereo not shown) [compound 2, 4-(2-ethynyl-6-fluorophenyl)-3-methoxycarbonyl-2,6-dimethyl-5-(N-diphenylmethylpiperazinylethoxycarbonyl)-1,4-dihydropyridine], the change in vivo at 30 mg/kg in series [1] (setting [8]) was -25%; in series [1] (setting [9]) it was -22.5%; in series [1] (setting [10]), -10%.

Take `C#Cc1cccc(C2C(C(=O)OC)=C(C)NC(C)=C2C(=O)OCCN2CCN(C(c3ccc(F)cc3)c3ccc(F)cc3)CC2)c1` (stereo not shown) [compound 4, 4-(3-ethynylphenyl)-3-methoxycarbonyl-2,6-dimethyl-5-(N-di-4-fluorophenylmethylpiperazinylethoxycarbonyl)-1,4-dihydropyridine]: the change in vivo at 10 mg/kg was -41.2% in series [1] (setting [8]), -40.9% in series [1] (setting [9]) and -35.7% in series [1] (setting [10]).

In the case of `C#Cc1cccc(C2C(C(=O)OC)=C(C)NC(C)=C2C(=O)OCCN2CCN(C(c3ccc(C)cc3)c3ccc(C)cc3)CC2)c1` (stereo not shown) [compound 5, 4-(3-ethynylphenyl)-3-methoxycarbonyl-2,6-dimethyl-5-(N-di-4-methyl-phenylmethylpiperazinylethoxycarbonyl)-1,4-dihydropyridine], the change in vivo at 10 mg/kg in series [1] (setting [8]) was -41.5%; in series [1] (setting [9]) it was -41.5%; in series [1] (setting [10]) it was -29.2%.

As to `C#Cc1cccc(C2C(C(=O)OC)=C(C)NC(C)=C2C(=O)OCCCN2CCN(c3ccccc3OC)CC2)c1` (stereo not shown) [compound 18, 4-(3-ethynylphenyl)-3-methoxycarbonyl-5-[3-(N-2-methoxyphenyl-piperazinyl)propoxycarbonyl]-2,6-dimethyl-1,4-dihydropyridine], the change in vivo at 10 mg/kg in series [1] (setting [8]) was -5.3%; in series [1] (setting [9]), -12.4%; in series [1] (setting [10]), -14.3%.

Turning to `C#Cc1cccc(C2C(C(=O)OCCN3CCN(C(c4ccccc4)c4ccccc4)CC3)=C(C)NC(N)=C2C(=O)OCC)c1` (stereo not shown) [compound 26, 4-(3-ethynylphenyl)-3-ethoxycarbonyl-2-amino-6-methyl-5-(N-diphenylmethylpiperazinylethoxycarbonyl)-1,4-dihydropyridine], the change in vivo at 30 mg/kg was -38.8% in series [1] (setting [8]), -43.8% in series [1] (setting [9]) and -41.5% in series [1] (setting [10]).

Take `C#Cc1cccc(C2C(C(=O)OC)=C(C)NC(C)=C2C(=O)OC(C)CN2CCN(C(c3ccccc3)c3ccccc3)CC2)c1` (stereo not shown) [compound 37, 4-(3-ethynylphenyl)-3-methoxycarbonyl-2,6-dimethyl-5-[2-(N-diphenyl-methylpiperazinyl)-1-methylethoxycarbonyl]-1,4-dihydropyridine]: the change in vivo at 30 mg/kg in series [1] (setting [8]) was -38.1%; in series [1] (setting [9]), -44.7%; in series [1] (setting [10]) it was -48.7%.

Consider Saralasin [reference compound], for which the “Angiotensin II Inhibition rate (%)” value with angiotensin II (Concentration 10^-7 M, 3 x 10^-8M angiotensin II) is 47.3%.
